For assay [1], the system named is porcine kidney-derived LLC-PK1 cells. Briefly: Protective effect against cell injury of porcine kidney-derived LLC-PK1 cells (1), oxidized LDL-induced LDH leakage. The class given is cell-based. Particulars: oxidized LDL 100 μg/ml, 6 hours; for % cytoprotection 1): test compounds added 16 hours before addition of oxidized LDL; for % cytoprotection 2): test compounds added immediately before addition of oxidized LDL. The method, then:
For the purpose of evaluating in vitro cytoprotective effect of the compounds of the present invention, protective effect against cell injury of porcine kidney-derived LLC-PK1 cells (ATCC-CRL-13921) induced by oxidized low-density lipoprotein (oxidized LDL) was examined.
The oxidized LDL was prepared by placing 1 mg/ml of rabbit LDL in PBS (−) in the presence of 10 μM CuSO4 at 37° C. for 24 hours. Cell cultures were prepared by inoculating 1.25×10^4 cells/250 μl/well on a 48-well plate using M199 medium containing 3% FBS. Test compounds were dissolved or suspended in ethanol and added at a ratio of 1.25 μl/well 16 hours before or immediately before addition of the oxidized LDL to a concentration of 0.1, 1 or 10 μM in each well. The oxidized LDL was diluted twice with physiological saline and then added to cells at 62.5 μl/well to a concentration of 100 μg/ml and the cells were incubated for 6 hours after addition of the oxidized LDL. After the incubation, 162.5 μl of the culture medium was collected from each of the wells and measured for the lactate dehydrogenase (LDH) activity (Lactate Dehydrogenase (LD-L): SIGNA DIAGNOSTICS) which has leaked into the culture medium.
(§1) The cytoprotective effect was expressed as a % cytoprotection where the effect in wells containing the oxidized LDL but without any test compound is 0% and the effect in wells containing physiological saline in place of the oxidized LDL is 100%.
In general terms: LDH in the medium is a marker of cell lysis.

In a further assay the test system is cultured mesangial cells. Briefly: Protective effect against cell injury of cultured mesangial cells, oxidized LDL-induced LDH leakage. The class given is cell-based, rats. The method, then: For the purpose of evaluating in vitro cytoprotective effect of the compounds of the present invention, protective effect against cell injury of cultured mesangial cells induced by oxidized low-density lipoprotein (LDL) was examined. The cells used were subcultures after 4 to 6 passages of the primary cultures of mesangial cells prepared from kidney of 4-week-old SD-strain male rats (Nippon Charles River Corp.).
The oxidized LDL was prepared by placing 1 mg/ml of rabbit LDL in PBS (−) in the presence of 10 μM CuSO4 at 37° C. for 24 hours. Cell cultures were prepared by inoculating 2.5×10^4 cells/250 μl/well on a 48-well plate using RPMI1640 medium containing 20% FBS. Immediately before addition of test compounds, the medium was replaced with RPMI1640 free from FBS. Test compounds were dissolved or suspended in ethanol and added at 1.25 μl/well 16 hours before or immediately before addition of the oxidized LDL to a concentration of 1, 3 or 10 μM in each well. Unlike Test example 1, the oxidized LDL was not diluted with physiological saline and added to cells at 25 μl/well to a concentration of 91 μg/ml and the cells were incubated for 8 hours after addition of the oxidized LDL. After the incubation, 150 μl of the culture medium was collected from each of the wells and measured for the lactate dehydrogenase activity (Lactate Dehydrogenase (LD-L): SIGMA DIAGNOSTICS) which has leaked in the culture medium.
as §1

Where two headings read alike, the source gives them in different places.

As to `CC1Cc2c(c(C(C)(C)C)cc(O)c2C(C)(C)C)O1` (stereo not shown) [Example 2, 4,7-Di-t-butyl-5-hydroxy-2-methyl-2,3-dihydrobenzofuran], the figures for the “% cytoprotection 1)” value in assay [1] (0.1 μM), in assay [1] (1 μM) and in assay [1] (10 μM) were 24.4%, 101.2% and 101.0%, respectively. Besides, the “% cytoprotection 2)” value was determined as 27.1% in assay [1] (0.1 μM), 101.5% in assay [1] (1 μM) and 99.9% in assay [1] (10 μM). The inhibition at 1 µM in the assay on cultured mesangial cells (Rattus norvegicus, Mesangial cell; 1 μM; test compounds added 16 hours before addition of oxidized LDL; oxidized LDL 91 μg/ml, 8 hours; read-out: % cytoprotection 1)) was 35.6 ± 7.5%; in the assay on cultured mesangial cells (Rattus norvegicus, Mesangial cell; 1 μM; test compounds added immediately before addition of oxidized LDL; oxidized LDL 91 μg/ml, 8 hours; read-out: % cytoprotection 2)) it was 40.6 ± 8.2%. The inhibition at 3 µM in the assay on cultured mesangial cells (Rattus norvegicus, Mesangial cell; 3 μM; test compounds added 16 hours before addition of oxidized LDL; oxidized LDL 91 μg/ml, 8 hours; read-out: % cytoprotection 1)) is 60.5 ± 6.2%; in the assay with cultured mesangial cells (Rattus norvegicus, Mesangial cell; 3 μM; test compounds added immediately before addition of oxidized LDL; oxidized LDL 91 μg/ml, 8 hours; read-out: % cytoprotection 2)), 53.1 ± 5.7%.

These data come from US6403639B1, “2,3-dihydrobenzofuran derivatives” (Chugai Seiyaku Kabushiki Kaisha, priority 1997, dated 2002).
